Source: patent publication US20030236458A1, “Spectroscopic systems and methods for detecting tissue properties” (BIOPHYSICA LLC, priority 1999, published 2003)
One block for each compound: values may come before it.

Assays:
hippocampal tissue slice = assay: Stimulation-evoked after discharge and intrinsic optical signals in hippocampal slices (Example 10); assay type: cell-based, rat
Protocol: Sprague-Dawley rats (male and female; 25 to 35 days old) were prepared as described in Aghajanian, A. K. and Rasmussen, K., Synapse 31:331, 1989; and Buckmaster, P. S., Strowbridge, B. W., Schwartzdroin, P. A., J. Neurophysiol. 70:1281, 1993. In most hippocampal slice experiments, simultaneous extracellular field electrode recordings were obtained from CA1 and CA3 areas. For stimulation-evoked after discharge (13 slices, 8 animals), the concentration of Mg^2+ in the bathing medium was reduced to 0.9 mM. A bipolar tungsten stimulating electrode was placed on the Schaffer collaterals to evoke synaptically driven field responses in CA1; stimuli consisted to 100 to 300-μs-duration pulses at an intensity of four times population-spike threshold. After discharges were evoked by a 2-[…] of such stimuli delivered at 60 Hz. […] In all treatments, perfusion with furosemide-containing medium was begun after a consistent level of bursting had been established.
For imaging of intrinsic optical signals, the tissue was illuminated with a beam of white light (tungsten filament light and lens system; Dedotec USA, Lodi, N.J.) directed through the microscope condenser. The light was controlled and regulated (power supply: Lambda Electronics, Melville, N.Y.) to minimize fluctuations and filtered (695 nm long-pass) so that the slice was transilluminated with long wavelengths (red). Image frames were acquired with a charge-coupled device camera (Dage-MTI) at 30 Hz and were digitized at 8 bits with a spatial resolution of 512 by 480 pixels by means of an Imaging Technology Series 151 imaging system; gains and offsets of the camera-control site and the analog-to-digital board were adjusted to optimize the sensitivity of the system. Imaging hardware was controlled by a 486-PC-compatible computer running software written by D. Hochman and developed with commercially available software tools (Microsoft's C/C++ Compiler and Imaging Technology's ITEX library). To increase signal-to-noise ratio, an averaged image was composed from 16 individual image-frames, integrated over 0.5 s and averaged together. An experimental series typically involved the continuous acquisition of a series of averaged images over a several minute time period; at least 10 of these averaged images were acquired as control images before stimulation. Pseudocolored images were calculated by subtracting the first control image from subsequently acquired images and assigned a color lookup table to the pixel values. For these images, usually a linear low-pass filter was used to remove high-frequency noise and a linear-histogram stretch was used to map the pixel values over the dynamic range of the system. All operations on these images were linear so that quantitative information was preserved.

hippocampal slice = assay: Spontaneous interictal-like bursts in hippocampal slices with modified bathing medium; assay type: cell-based, rat
glioma [1] = settings: rat, in vivo
Excerpt: This example illustrates a series of experiments using a rat glioma model and optical detection techniques through an intact skull to investigate whether the inventive method and inventive device could function in to image tumor tissue through an intact skull and through intact skin prior to or after surgery. Far red wavelengths of emr are known to penetrate through bone and skin. Imaging of tumor tissue was attempted through the intact skull of the rat. The extent of tumor identified was not as accurate as with the cortex exposed, however, the area lying beneath the skull with tumor tissue was easily identified, localized and continued to concentrate dye after several minutes.
An image was taken for a grey-scale image of the cranial surface of a rat. The sagital suture runs down the center of the image. Tumor cells had been injected into the left side some days earlier so that this animal had developed a glioma on the left hemisphere of its brain. The right hemisphere was normal. A site 1 laid over the suspect region of brain tumor, and a site 2 laid over normal tissue. A difference image was acquired at 1 second after indocyanine green dye had been intravenously injected into the animal. The region containing tumor tissue becomes immediately visible through the intact cranium. […] A concentration of dye in the center of this difference image was observed and depicted dye circulating in the sagital sinus.
The optical changes were determined by the average optical change in a site placed directly over the tumor and over the normal hemisphere. The increase in absorption is a function of the concentration of dye in the tissue at a particular time. The graph labeled “extracranial tumor” is a plot of the dynamics of the absorption changes from the tumor area. The graph labeled “extracranial: normal” is a plot of the dynamics of the absorption change from the non-tumor area.

glioma [2] = tested on: glioma; design: species or system rat; settings: in vivo
Excerpt: This example illustrates a series of experiments using a rat glioma model intraoperatively to investigate whether the inventive method and inventive device could function in an operating room setting to provide real time information to the surgeon regarding resection of all tumor tissue. The rat glioma model is a standard predictive model and was used to delineate dye uptake, clearance and overall parameters of optical imaging that result in the best images. The advantages of this model are the ability to consistently get reproducible tumors for imaging studies and to be able to rescect tumor under an operating microscope and still find residual tumor with the inventive optical imaging. A disadvantage of this model is the more sarcoma-like appearance of the tumor and a lesser degree of vascularity compared to human gliomas.
Briefly, the rat glioma model uses an ethylnitrosourea-induced F-344 rat tumor line developed from a clonal population of a spinal malignant astrocytoma. […] The glioma cells were maintained in Weymouth's medium supplemented with 10% fetal calf serum. Viable cells (5×10^4) were trypsinized from a monolayer culture and implanted stereotaxically into the right cerebral hemisphere of 30 syngeneic female rats, each weighing 140-160 g. The stereotaxic coordinates for right frontal lobe implantation were 4.5 mm anterior to the frontal zero plane, 3 mm right from the midline and 6 mm deep. The rats were anesthetized for implantation. The heads were shaved and scalps opened, and a 1 mm burr hole made at the appropriate coordinates. The cells were injected through a 27 gauge needle, the needle left in place for 30 sec post injection and the hole was covered with bone wax: The scalp was sutured and the animals observed for 3-4 hrs until they returned to normal activity and feeding. The animals were used !I 0-14 days after tumor implantation. In this model, animals begin to show clinical symptoms from the tumor by 16-19 days, such as decreased activity and feeding, hemiparesis and eventually succumb between 19-27 days from mass effects due to tumor expansion.
Fourteen animals underwent complete study, including imaging before and after resection of the tumor. For study, the animals were anesthetized with 2% isoflurane, and the femoral vein canulated for administration of the dye. Anesthesia was maintained with a chloralsoe (50 mg/kg administered ip) and urethane (160 mg/kg administered ip). The animals were placed in a stereotaxic holder. Imaging studies were then carried out before or after removal of the cranium. The tumor typically occupied the anterior one half to two thirds of the right hemisphere exposure. […]

[3] = tested on: low grade human CNS tumor; assay: Optical imaging of dye perfusion in a low grade human CNS tumor (Example 3); assay type: in vivo
Protocol: This example illustrates the use of a contrast enhancing agent, indocyanine green, to identify and spatially localize a low grade human CNS tumor. An MRI scan was conducted before the operation. Additionally, the patient was investigated for tumor tissue using the apparatus described according to the invention and specifically described above.
The area of interest was evenly illuminated by a fiber optic light source with the radiation passing through a beam splitter, controlled by a D.C. regulated power supply (Lambda, Inc.) and passed through a 695 nm long pass filter. Images were acquired with a CCD camera (COHU 6500) fitted to the operating microscope with a specially modified cineadaptor. The cortex was stabilized with a glass footplate. Images were acquired at 30 Hz and digitized at 8 bits (512×480 pixels, using an Imaging Technology, Inc. Series 151 system, Woburn, Mass.). Geometrical transformations were applied to images to compensate for small amounts of patient motion (Wohlberg, Digital Imaging Warping, IEEE Computer Society: Los Alamitos, Calif., 1988). […] Raw data (i.e., no digital enhancement) were used for determining the average optical change in specified regions (average size site was 30×30 pixels or 150-250 um^2). For pseudocolor images, a linear low pass filter removed high frequency noise and linear histogram transformations were applied. Noise was defined as the standard deviation of fluctuations in sequentially acquired control images as 0.003-0.009.
An averaged control image was obtained of the particular cortical surface area of interest. Indocyanine green dye was administered into a peripheral intravenous catheter as a bolus at Time 0. Lettered labels were placed upon the brain by the surgeon overlay the tumor as identified intraoperatively by ultrasound. However, tumors of this type and grade are notoriously difficult to distinguish from normal tissue once the surgical removal of the tumor has begun. Difference images were taken approximately 15 seconds after intravenous injection of dye (indocyanine green at 1 mg/kg), and 30 seconds after dye administration. […] Therefore, it is possible to image even low grade tumors with this apparatus. Furthermore, it is possible to distinguish, intraoperatively, low grade tumor tissue from surrounding normal tissue.

[4] = tested on: malignant CNS tumor (glioblastoma; astrocytoma, Grade IV); assay: Optical imaging of dye perfusion in a highly malignant CNS tumor (Example 4); assay type: in vivo, human
Excerpt: This example illustrates the image of a highly malignant CNS tumor (glioblastoma). A patient was imaged in a neurosurgical procedure as described in Example 1. A series of images were taken from the cortex of a patient with a malignant CNS tumor (glioblastoma; astrocytoma, Grade IV). […] A difference image was obtained at 15 seconds after intravenous injection of indocyanine green, showing the dynamics of dye perfusion in the first seconds in malignant tissue are […] to those in the first few seconds of benign tumor tissue. […] Therefore, it is possible with this device to identify malignant tumor tissue, distinguish intraoperatively between normal and malignant tumor tissue, and to distinguish between the various grades of tumor (e.g., normal vs. benign vs. malignant). Thus, it is possible to not only image the location of tumor tissue, but also to grade the tumor with more malignant tumors retaining dye for a longer period of time than a lower grade tumor.

[5] = 2.5 mM in medium, 20 minutes of perfusion, stimulation at 60 Hz

Structure (SMILES): NS(=O)(=O)c1cc(C(=O)O)c(NCc2ccco2)cc1Cl [furosemide]
- field response to the test pulse (hippocampal tissue slice; 2.5 mM in medium, 20 minutes of perfusion): hyperexcitable field response (multiple population spikes)
- electrical after discharge (epileptiform) activity (hippocampal tissue slice; [5]): blocks
- stimulation-evoked optical changes (intrinsic optical signal) (hippocampal tissue slice; [5]): blocks
- response after washout (hippocampal tissue slice; 45 minutes of perfusion with normal bathing medium): restoration of the initial response pattern

Structure (SMILES): CN1CCc2cc3c(cc2[C@H]1[C@@H]1OC(=O)c2c1ccc1c2OCO1)OCO3 [bicuculine]
- spontaneous interictal-like bursts, average (hippocampal slice; 50 to 100 in bathing medium, 4 slices, 3 animals): 14 bursts/min

Structure (SMILES): [K+] [K^+]
- spontaneous interictal-like bursts, average (hippocampal slice; 10 mM in bathing medium, 6 slices, 4 animals): 81 bursts/min

- plateau phase optical change, normal brain (glioma [1]; 60 seconds): 3.1±0.7%
- plateau phase optical change, tumor tissue (glioma [1]; 60 seconds): 40.5±9.6%
- peak optical change, normal brain imaged through the cranium (glioma [1]; iv): 7.8±2.3%
- peak optical change, tumor imaged through the cranium (glioma [1]; iv): 13.1±3.9%
- duration of prolonged increase in the optical signal in the tumor (glioma [2]; female, F-344, rat): > 2 min
- time after dye injection at which optical signals began to change (glioma [2]; female, F-344, rat): 2 to 3 s
- dye in tumor tissue versus normal tissue (glioma [2]; rat): still collecting in tumor tissue
- dye in the cerebrospinal fluid after administration (glioma [2]; rat, iv): No dye was found
- tissue staining in difference images, tumor tissue ([3]; 1 mg/kg intravenous bolus, approximately 15 and 30 seconds after dye administration): first tissue staining
- time at which all tissue (both normal and abnormal) showed staining ([3]; 1 mg/kg intravenous, low grade tumor): 45 s
- clearance of dye from the area of interest ([3]; five minutes after dye administration, low grade tumor): complete clearance
- entry into low grade tumor tissue compared to normal brain tissue ([3]; intravenous): faster than normal brain tissue
- intensity in malignant tissue compared to normal tissue ([4]; 30 seconds after intravenous injection): even more intense
- retention of dye in malignant tumor tissue compared to benign tumor tissue ([4]; 1 minute and 10 minutes after dye injection): retained significantly longer
Structure (SMILES): CC1(C)C(/C=C/C=C/C=C/C=C2\N(CCCCS(=O)(=O)O)c3ccc4ccccc4c3C2(C)C)=[N+](CCCCS(=O)(=O)[O-])c2ccc3ccccc3c21 [indocyanine green]

Structure (SMILES): Nc1ccncc1 [4-AP]
- spontaneous interictal-like bursts, average (hippocampal slice; 200 to 300 μM in bathing medium, 4 slices, 2 animals): 33 bursts/min
